Tests used:
Format in all cases: in vivo
Conditions in all cases: Preemergence, scale 0 to 100
[1] = tested on: nutsedge, yellow (yellow nutsedge, Cyperus esculentus); assay: Test E pre-/postemergence: nutsedge, yellow
Description: (§1) Seeds of plant species selected from corn (Zea mays), soybean (Glycine max), velvetleaf (Abutilon theophrasti), lambsquarters (Chenopodium album), poinsettia, wild (wild poinsettia, Euphorbia heterophylla), pigweed, palmer (palmer pigweed, Amaranthus palmeri), waterhemp (common waterhemp, Amaranthus rudis), smartweed (ladysthumb smartweed, Polygonum persicaria), surinam grass (Brachiaria decumbens), crabgrass, large (large crabgrass, Digitaria sanguinalis), crabgrass, Brazil (Brazilian crabgrass, Digitaria horizontalis), panicum, fall (fall panicum, Panicum dichotomiflorum), foxtail, giant (giant foxtail, Setaria faberii), foxtail, green (green foxtail, Setaria viridis), goosegrass (Eleusine indica), johnsongrass (Sorghum halepense), ragweed (common ragweed, Ambrosia elation), barnyardgrass (Echinochloa crus-galli), sandbur (southern sandbur, Cenchrus echinatus), arrowleaf sida (Sida rhombifolia), ryegrass, Italian (Italian ryegrass, Lolium multiflorum), dayflower, (VA) (Virginia dayflower, Commelina virginica), field bindweed (Convolvulus arvensis), cocklebur (common cocklebur, Xanthium strumarium), morningglory (Ipomoea coccinea), nightshade (eastern black nightshade, Solanum ptycanthum), kochia (Kochia scoparia), nutsedge, yellow (yellow nutsedge, Cyperus esculentus) and beggarticks (hairy beggarticks, Bidens pilosa) were planted into a silt loam soil and treated preemergence with test chemicals formulated in a non-phytotoxic solvent mixture which included a surfactant. At the same time, plants selected from these crop and weed species were planted in pots containing a growing medium comprising spaghnum peat moss, vermiculite, wetting agent and starter nutrients and treated with postemergence applications of some of the test chemicals formulated in the same manner. Plants ranged in height from 2 to 18 cm for postemergence treatments (1- to 4-leaf stage).
(§2) Treated plants and controls were maintained in a greenhouse for 14 to 21 days, after which time all species were compared to controls and visually evaluated. Plant response ratings, summarized in Table E, are based on a scale of 0 to 100 where 0 is no effect and 100 is complete control. A dash (-) response means no test result.

[2] = tested on: field bindweed (Convolvulus arvensis); assay: Test E pre-/postemergence: field bindweed
Description: as §1, §2

[3] = tested on: cocklebur (common cocklebur, Xanthium strumarium); assay: Test E pre-/postemergence: cocklebur
Description: as §1, §2

[4] = tested on: panicum, fall (fall panicum, Panicum dichotomiflorum); assay: Test E pre-/postemergence: panicum, fall
Description: as §1, §2

[5] = tested on: soybean (Glycine max); assay: Test E pre-/postemergence: soybean
Description: as §1, §2

[6] = tested on: goosegrass (Eleusine indica); assay: Test E pre-/postemergence: goosegrass
Description: as §1, §2

[7] = tested on: beggarticks (hairy beggarticks, Bidens pilosa); assay: Test E pre-/postemergence: beggarticks
Description: as §1, §2

[8] = tested on: ragweed (common ragweed, Ambrosia elation); assay: Test E pre-/postemergence: ragweed
Description: as §1, §2

[9] = tested on: crabgrass, Brazil (Brazilian crabgrass, Digitaria horizontalis); assay: Test E pre-/postemergence: crabgrass, Brazil
Description: as §1, §2

[10] = tested on: barnyardgrass (Echinochloa crus-galli); assay: Test E pre-/postemergence: barnyardgrass
Description: as §1, §2

[11] = tested on: poinsettia, wild (wild poinsettia, Euphorbia heterophylla); assay: Test E pre-/postemergence: poinsettia, wild
Description: as §1, §2

COc1nn(-c2ccc(C(F)(F)F)cc2)nc1Cc1ccnc(C(F)(F)F)c1 [Compound 15, 4-[[5-methoxy-2-[4-(trifluoromethyl)phenyl]-2H-1,2,3-triazol-4-yl]methyl]-2-(trifluoromethyl)pyridine]
20: Plant response rating: Cocklebur ([3]; 250 g ai/ha) | Plant response rating: Soybean ([5]; 62 g ai/ha)
0: Plant response rating: Nutsedge, Yellow ([1]; 16 g ai/ha) | Plant response rating: Nutsedge, Yellow ([1]; 31 g ai/ha) | Plant response rating: Nutsedge, Yellow ([1]; 62 g ai/ha) | Plant response rating: Nutsedge, Yellow ([1]; 125 g ai/ha) | Plant response rating: Nutsedge, Yellow ([1]; 250 g ai/ha) | Plant response rating: Cocklebur ([3]; 31 g ai/ha) | Plant response rating: Cocklebur ([3]; 62 g ai/ha) | Plant response rating: Soybean ([5]; 16 g ai/ha) | Plant response rating: Soybean ([5]; 31 g ai/ha) | Plant response rating: Ragweed ([8]; 16 g ai/ha)
10: Plant response rating: Barnyardgrass ([10]; 16 g ai/ha)
5: Plant response rating: Field Bindweed ([2]; 16 g ai/ha) | Plant response rating: Field Bindweed ([2]; 31 g ai/ha) | Plant response rating: Beggarticks ([7]; 16 g ai/ha) | Plant response rating: Beggarticks ([7]; 31 g ai/ha) | Plant response rating: Ragweed ([8]; 31 g ai/ha)
40: Plant response rating: Field Bindweed ([2]; 62 g ai/ha)
95: Plant response rating: Field Bindweed ([2]; 250 g ai/ha)
30: Plant response rating: Ragweed ([8]; 125 g ai/ha) | Plant response rating: Poinsettia, Wild ([11]; 16 g ai/ha) | Plant response rating: Poinsettia, Wild ([11]; 31 g ai/ha)
65: Plant response rating: Poinsettia, Wild ([11]; 62 g ai/ha)
98: Plant response rating: Panicum, Fall ([4]; 16 g ai/ha) | Plant response rating: Panicum, Fall ([4]; 31 g ai/ha) | Plant response rating: Crabgrass, Brazil ([9]; 31 g ai/ha) | Plant response rating: Barnyardgrass ([10]; 125 g ai/ha)
100: Plant response rating: Panicum, Fall ([4]; 62 g ai/ha) | Plant response rating: Panicum, Fall ([4]; 125 g ai/ha) | Plant response rating: Panicum, Fall ([4]; 250 g ai/ha) | Plant response rating: Goosegrass ([6]; 31 g ai/ha) | Plant response rating: Goosegrass ([6]; 62 g ai/ha) | Plant response rating: Goosegrass ([6]; 125 g ai/ha) | Plant response rating: Goosegrass ([6]; 250 g ai/ha) | Plant response rating: Beggarticks ([7]; 250 g ai/ha) | Plant response rating: Crabgrass, Brazil ([9]; 62 g ai/ha) | Plant response rating: Crabgrass, Brazil ([9]; 125 g ai/ha) | Plant response rating: Crabgrass, Brazil ([9]; 250 g ai/ha) | Plant response rating: Barnyardgrass ([10]; 250 g ai/ha)
50: Plant response rating: Beggarticks ([7]; 62 g ai/ha) | Plant response rating: Barnyardgrass ([10]; 31 g ai/ha)
60: Plant response rating: Field Bindweed ([2]; 125 g ai/ha) | Plant response rating: Ragweed ([8]; 250 g ai/ha) | Plant response rating: Crabgrass, Brazil ([9]; 16 g ai/ha)
80: Plant response rating: Beggarticks ([7]; 125 g ai/ha) | Plant response rating: Poinsettia, Wild ([11]; 250 g ai/ha)
85: Plant response rating: Barnyardgrass ([10]; 62 g ai/ha)
75: Plant response rating: Goosegrass ([6]; 16 g ai/ha) | Plant response rating: Poinsettia, Wild ([11]; 125 g ai/ha)
35: Plant response rating: Soybean ([5]; 125 g ai/ha) | Plant response rating: Soybean ([5]; 250 g ai/ha)

Cc1nn(-c2ccc(C(F)(F)F)cn2)nc1Oc1ccnc(C(F)(F)F)c1 [Compound 23]
25: Plant response rating: Ragweed ([8]; 250 g ai/ha)
65: Plant response rating: Crabgrass, Brazil ([9]; 62 g ai/ha) | Plant response rating: Crabgrass, Brazil ([9]; 125 g ai/ha)
60: Plant response rating: Goosegrass ([6]; 250 g ai/ha)
100: Plant response rating: Panicum, Fall ([4]; 125 g ai/ha) | Plant response rating: Panicum, Fall ([4]; 250 g ai/ha)
70: Plant response rating: Field Bindweed ([2]; 250 g ai/ha)
15: Plant response rating: Nutsedge, Yellow ([1]; 125 g ai/ha) | Plant response rating: Nutsedge, Yellow ([1]; 250 g ai/ha) | Plant response rating: Panicum, Fall ([4]; 31 g ai/ha)
85: Plant response rating: Crabgrass, Brazil ([9]; 250 g ai/ha)
35: Plant response rating: Goosegrass ([6]; 125 g ai/ha) | Plant response rating: Poinsettia, Wild ([11]; 125 g ai/ha) | Plant response rating: Poinsettia, Wild ([11]; 250 g ai/ha)
0: Plant response rating: Nutsedge, Yellow ([1]; 16 g ai/ha) | Plant response rating: Nutsedge, Yellow ([1]; 31 g ai/ha) | Plant response rating: Nutsedge, Yellow ([1]; 62 g ai/ha) | Plant response rating: Field Bindweed ([2]; 16 g ai/ha) | Plant response rating: Field Bindweed ([2]; 31 g ai/ha) | Plant response rating: Field Bindweed ([2]; 62 g ai/ha) | Plant response rating: Field Bindweed ([2]; 125 g ai/ha) | Plant response rating: Cocklebur ([3]; 16 g ai/ha) | Plant response rating: Cocklebur ([3]; 31 g ai/ha) | Plant response rating: Cocklebur ([3]; 62 g ai/ha) | Plant response rating: Cocklebur ([3]; 125 g ai/ha) | Plant response rating: Cocklebur ([3]; 250 g ai/ha) | Plant response rating: Panicum, Fall ([4]; 16 g ai/ha) | Plant response rating: Soybean ([5]; 16 g ai/ha) | Plant response rating: Soybean ([5]; 31 g ai/ha) | Plant response rating: Soybean ([5]; 62 g ai/ha) | Plant response rating: Soybean ([5]; 125 g ai/ha) | Plant response rating: Goosegrass ([6]; 16 g ai/ha) | Plant response rating: Ragweed ([8]; 16 g ai/ha) | Plant response rating: Ragweed ([8]; 31 g ai/ha) | Plant response rating: Ragweed ([8]; 62 g ai/ha) | Plant response rating: Ragweed ([8]; 125 g ai/ha) | Plant response rating: Crabgrass, Brazil ([9]; 16 g ai/ha) | Plant response rating: Crabgrass, Brazil ([9]; 31 g ai/ha) | Plant response rating: Barnyardgrass ([10]; 16 g ai/ha) | Plant response rating: Barnyardgrass ([10]; 31 g ai/ha) | Plant response rating: Barnyardgrass ([10]; 62 g ai/ha) | Plant response rating: Poinsettia, Wild ([11]; 16 g ai/ha) | Plant response rating: Poinsettia, Wild ([11]; 31 g ai/ha) | Plant response rating: Poinsettia, Wild ([11]; 62 g ai/ha)
80: Plant response rating: Panicum, Fall ([4]; 62 g ai/ha)
20: Plant response rating: Soybean ([5]; 250 g ai/ha) | Plant response rating: Goosegrass ([6]; 62 g ai/ha) | Plant response rating: Barnyardgrass ([10]; 125 g ai/ha) | Plant response rating: Barnyardgrass ([10]; 250 g ai/ha)
